Source: patent US9492471B2, “Methods of treating a disease or disorder associated with Bruton'S Tyrosine Kinase” (Celgene Avilomics Research, Inc., priority 2013, dated 2016)
Read-outs that look alike come from different tables or passages of the source.

What was measured:
Assay in all cases: HotSpot kinase profiling
Assay type in all cases: biochemical
PAK6 = biological target: T1, PAK6 (Homo sapiens, UniProt Q9NQU5)
T1 construct: purchased Reaction Biology Corp
Method in brief: (§1)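 Percent inhibition, averaged when run more than once and referenced to a DMSO negative control, came from a radioactive filter-binding readout on P81 paper. Reactions of kinase with freshly made substrate and cofactors ran for 2 h at room temperature.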

ZAK/MLTK = biological target: T2, ZAK/MLTK (Homo sapiens, UniProt Q9NYL2)
T2 construct: purchased Reaction Biology Corp
Method in brief: as §1

TIE2/TEK = biological target: T3, TIE2/TEK (Homo sapiens, UniProt Q02763)
T3 construct: purchased Reaction Biology Corp
Method in brief: as §1

GRK5 = biological target: T4, GRK5 (Homo sapiens, UniProt P34947)
T4 construct: purchased Reaction Biology Corp
Method in brief: as §1

Haspin = biological target: T5, Haspin (Homo sapiens, UniProt Q8TF76)
T5 construct: purchased Reaction Biology Corp
T5 sequence (Q8TF76 1-798): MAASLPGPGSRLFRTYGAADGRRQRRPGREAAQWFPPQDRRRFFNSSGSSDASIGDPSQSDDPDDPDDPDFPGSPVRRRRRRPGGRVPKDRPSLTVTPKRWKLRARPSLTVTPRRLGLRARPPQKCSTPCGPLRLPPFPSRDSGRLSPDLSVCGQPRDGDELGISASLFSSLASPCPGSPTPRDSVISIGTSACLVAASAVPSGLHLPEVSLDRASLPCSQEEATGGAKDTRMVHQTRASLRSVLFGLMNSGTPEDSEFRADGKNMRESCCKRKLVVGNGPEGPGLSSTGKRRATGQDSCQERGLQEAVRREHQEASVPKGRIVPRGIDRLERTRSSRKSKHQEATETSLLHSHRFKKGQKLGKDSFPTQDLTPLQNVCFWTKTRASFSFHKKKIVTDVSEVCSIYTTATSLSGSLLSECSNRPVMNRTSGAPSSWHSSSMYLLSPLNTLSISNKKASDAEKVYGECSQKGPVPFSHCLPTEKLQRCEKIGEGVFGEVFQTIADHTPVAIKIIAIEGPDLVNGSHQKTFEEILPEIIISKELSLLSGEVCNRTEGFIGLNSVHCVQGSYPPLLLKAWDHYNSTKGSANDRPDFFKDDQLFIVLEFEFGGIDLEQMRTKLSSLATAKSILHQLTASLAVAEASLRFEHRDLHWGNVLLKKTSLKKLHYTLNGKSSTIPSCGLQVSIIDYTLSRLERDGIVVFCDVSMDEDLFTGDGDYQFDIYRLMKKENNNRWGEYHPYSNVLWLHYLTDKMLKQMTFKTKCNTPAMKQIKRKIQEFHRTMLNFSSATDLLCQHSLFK
Method in brief: as §1

DMPK2 = biological target: T6, DMPK2 (Homo sapiens, UniProt Q6DT37)
T6 construct: purchased Reaction Biology Corp
Method in brief: as §1

TAOK3/JIK = biological target: T7, TAOK3/JIK (Homo sapiens, UniProt Q9H2K8)
T7 construct: purchased Reaction Biology Corp
T7 sequence (Q9H2K8 1-898): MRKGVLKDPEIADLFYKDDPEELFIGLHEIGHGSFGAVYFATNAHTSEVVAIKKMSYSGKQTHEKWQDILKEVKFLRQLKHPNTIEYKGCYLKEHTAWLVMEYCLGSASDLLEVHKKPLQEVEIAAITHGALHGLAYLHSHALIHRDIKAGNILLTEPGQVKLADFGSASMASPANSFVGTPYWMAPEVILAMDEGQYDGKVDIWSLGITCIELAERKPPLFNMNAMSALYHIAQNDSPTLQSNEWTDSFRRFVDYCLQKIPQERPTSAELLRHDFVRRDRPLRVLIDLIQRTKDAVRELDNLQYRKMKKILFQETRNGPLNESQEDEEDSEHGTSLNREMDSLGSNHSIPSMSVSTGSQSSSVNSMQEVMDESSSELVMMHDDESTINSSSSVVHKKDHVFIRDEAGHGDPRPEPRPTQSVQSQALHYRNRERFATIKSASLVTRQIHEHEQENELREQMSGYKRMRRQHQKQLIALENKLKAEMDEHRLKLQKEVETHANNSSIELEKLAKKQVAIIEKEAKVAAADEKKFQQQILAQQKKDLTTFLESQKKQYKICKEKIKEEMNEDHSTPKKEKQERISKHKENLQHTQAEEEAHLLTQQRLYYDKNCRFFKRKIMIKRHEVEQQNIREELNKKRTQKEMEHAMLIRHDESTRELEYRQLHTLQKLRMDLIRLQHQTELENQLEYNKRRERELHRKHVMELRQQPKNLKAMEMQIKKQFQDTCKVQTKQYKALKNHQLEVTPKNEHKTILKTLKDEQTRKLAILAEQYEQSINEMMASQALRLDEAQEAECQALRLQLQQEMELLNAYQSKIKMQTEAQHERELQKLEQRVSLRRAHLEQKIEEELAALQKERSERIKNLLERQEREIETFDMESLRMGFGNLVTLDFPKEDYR
Method in brief: as §1

[1] = read-out: % Enzyme Activity (relative to DMSO controls) Run 1
[2] = read-out: % Enzyme Activity (relative to DMSO controls) Run 2

T3 sequence (Q02763 23-1124): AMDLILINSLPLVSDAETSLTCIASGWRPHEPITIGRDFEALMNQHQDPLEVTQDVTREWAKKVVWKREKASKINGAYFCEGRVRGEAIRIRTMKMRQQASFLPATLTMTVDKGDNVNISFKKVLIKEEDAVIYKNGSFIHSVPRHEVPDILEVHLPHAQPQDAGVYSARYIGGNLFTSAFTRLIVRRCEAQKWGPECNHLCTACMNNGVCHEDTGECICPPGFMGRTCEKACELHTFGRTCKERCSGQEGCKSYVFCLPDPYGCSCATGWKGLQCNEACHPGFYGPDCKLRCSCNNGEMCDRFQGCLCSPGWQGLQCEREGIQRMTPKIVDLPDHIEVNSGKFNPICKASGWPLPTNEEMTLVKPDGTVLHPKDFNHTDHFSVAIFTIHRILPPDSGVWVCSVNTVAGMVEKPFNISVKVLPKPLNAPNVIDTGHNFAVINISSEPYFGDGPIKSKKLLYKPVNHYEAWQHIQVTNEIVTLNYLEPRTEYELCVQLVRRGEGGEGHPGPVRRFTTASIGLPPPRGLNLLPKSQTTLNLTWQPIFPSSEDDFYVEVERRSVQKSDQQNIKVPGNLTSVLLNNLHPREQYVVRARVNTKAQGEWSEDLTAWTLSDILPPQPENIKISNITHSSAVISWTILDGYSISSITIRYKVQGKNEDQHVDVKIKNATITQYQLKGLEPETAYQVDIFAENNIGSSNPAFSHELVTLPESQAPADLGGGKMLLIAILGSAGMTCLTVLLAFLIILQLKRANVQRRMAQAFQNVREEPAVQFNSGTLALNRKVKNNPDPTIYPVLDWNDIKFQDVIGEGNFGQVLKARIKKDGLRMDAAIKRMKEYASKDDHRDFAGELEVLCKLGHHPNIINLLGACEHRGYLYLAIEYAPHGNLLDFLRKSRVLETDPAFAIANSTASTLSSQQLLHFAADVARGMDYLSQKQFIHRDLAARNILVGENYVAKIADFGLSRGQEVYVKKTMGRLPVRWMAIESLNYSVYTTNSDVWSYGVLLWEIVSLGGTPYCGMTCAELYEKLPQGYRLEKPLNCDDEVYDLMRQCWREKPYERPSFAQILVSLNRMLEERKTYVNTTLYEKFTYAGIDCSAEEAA
T6 sequence (Q6DT37 whole entry): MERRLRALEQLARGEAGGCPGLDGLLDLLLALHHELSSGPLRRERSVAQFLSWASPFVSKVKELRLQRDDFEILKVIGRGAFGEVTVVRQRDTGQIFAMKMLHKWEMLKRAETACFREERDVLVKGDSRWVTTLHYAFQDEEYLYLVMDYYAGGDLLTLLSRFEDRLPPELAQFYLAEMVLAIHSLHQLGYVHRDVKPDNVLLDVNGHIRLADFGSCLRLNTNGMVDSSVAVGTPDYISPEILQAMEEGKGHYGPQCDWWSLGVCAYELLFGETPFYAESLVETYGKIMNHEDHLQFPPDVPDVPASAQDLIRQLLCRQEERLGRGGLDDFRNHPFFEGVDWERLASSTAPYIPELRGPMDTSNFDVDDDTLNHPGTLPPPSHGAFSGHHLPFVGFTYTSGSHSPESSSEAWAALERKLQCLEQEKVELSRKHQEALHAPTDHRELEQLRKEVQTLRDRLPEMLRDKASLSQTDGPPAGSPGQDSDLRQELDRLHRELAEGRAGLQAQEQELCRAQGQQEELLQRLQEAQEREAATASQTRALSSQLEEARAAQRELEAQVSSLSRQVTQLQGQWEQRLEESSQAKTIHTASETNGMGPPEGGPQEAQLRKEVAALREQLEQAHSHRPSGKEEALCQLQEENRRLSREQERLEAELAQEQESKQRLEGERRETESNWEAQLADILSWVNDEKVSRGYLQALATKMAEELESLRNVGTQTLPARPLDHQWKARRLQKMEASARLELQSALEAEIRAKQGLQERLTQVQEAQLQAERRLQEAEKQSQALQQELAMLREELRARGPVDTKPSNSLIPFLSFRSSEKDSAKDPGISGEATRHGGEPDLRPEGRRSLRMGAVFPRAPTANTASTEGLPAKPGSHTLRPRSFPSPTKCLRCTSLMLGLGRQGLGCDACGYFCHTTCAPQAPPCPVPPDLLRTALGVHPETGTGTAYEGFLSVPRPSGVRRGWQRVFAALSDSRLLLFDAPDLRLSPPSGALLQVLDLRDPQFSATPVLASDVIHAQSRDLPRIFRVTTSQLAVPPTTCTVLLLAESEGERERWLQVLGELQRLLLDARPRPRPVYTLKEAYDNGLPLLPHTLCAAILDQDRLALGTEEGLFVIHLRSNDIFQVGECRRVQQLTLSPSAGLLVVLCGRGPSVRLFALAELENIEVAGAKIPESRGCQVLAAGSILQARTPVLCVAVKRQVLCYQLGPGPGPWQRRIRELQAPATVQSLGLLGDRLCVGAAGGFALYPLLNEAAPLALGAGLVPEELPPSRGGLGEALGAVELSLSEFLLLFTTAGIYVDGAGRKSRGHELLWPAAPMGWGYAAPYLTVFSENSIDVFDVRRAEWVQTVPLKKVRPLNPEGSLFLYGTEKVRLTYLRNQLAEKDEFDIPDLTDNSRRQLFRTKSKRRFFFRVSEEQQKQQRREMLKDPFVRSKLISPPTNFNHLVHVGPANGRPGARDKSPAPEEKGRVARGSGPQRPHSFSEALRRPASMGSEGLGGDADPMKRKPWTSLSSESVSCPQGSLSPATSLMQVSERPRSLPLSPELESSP
T2 sequence (Q9NYL2 whole entry): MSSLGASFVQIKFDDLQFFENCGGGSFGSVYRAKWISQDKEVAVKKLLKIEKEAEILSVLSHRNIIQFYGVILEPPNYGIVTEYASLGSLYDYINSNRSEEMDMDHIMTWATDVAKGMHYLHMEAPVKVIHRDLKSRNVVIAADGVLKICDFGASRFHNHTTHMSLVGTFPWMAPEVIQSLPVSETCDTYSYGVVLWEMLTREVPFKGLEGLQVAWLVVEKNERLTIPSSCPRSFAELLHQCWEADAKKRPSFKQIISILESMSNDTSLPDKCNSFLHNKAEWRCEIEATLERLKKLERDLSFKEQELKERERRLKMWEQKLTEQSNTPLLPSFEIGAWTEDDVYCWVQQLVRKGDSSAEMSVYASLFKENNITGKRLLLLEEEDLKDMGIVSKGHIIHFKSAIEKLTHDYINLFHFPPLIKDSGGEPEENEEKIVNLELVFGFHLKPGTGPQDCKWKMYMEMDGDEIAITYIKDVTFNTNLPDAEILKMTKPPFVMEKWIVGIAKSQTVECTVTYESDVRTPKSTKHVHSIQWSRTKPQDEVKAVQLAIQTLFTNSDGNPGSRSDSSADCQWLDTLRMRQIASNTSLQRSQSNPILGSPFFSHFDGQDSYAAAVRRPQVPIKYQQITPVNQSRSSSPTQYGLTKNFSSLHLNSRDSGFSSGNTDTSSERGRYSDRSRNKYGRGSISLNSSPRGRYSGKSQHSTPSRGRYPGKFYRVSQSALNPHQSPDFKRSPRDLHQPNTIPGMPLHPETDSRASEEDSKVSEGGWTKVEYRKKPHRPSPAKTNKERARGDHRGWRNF
T1 sequence (Q9NQU5 whole entry): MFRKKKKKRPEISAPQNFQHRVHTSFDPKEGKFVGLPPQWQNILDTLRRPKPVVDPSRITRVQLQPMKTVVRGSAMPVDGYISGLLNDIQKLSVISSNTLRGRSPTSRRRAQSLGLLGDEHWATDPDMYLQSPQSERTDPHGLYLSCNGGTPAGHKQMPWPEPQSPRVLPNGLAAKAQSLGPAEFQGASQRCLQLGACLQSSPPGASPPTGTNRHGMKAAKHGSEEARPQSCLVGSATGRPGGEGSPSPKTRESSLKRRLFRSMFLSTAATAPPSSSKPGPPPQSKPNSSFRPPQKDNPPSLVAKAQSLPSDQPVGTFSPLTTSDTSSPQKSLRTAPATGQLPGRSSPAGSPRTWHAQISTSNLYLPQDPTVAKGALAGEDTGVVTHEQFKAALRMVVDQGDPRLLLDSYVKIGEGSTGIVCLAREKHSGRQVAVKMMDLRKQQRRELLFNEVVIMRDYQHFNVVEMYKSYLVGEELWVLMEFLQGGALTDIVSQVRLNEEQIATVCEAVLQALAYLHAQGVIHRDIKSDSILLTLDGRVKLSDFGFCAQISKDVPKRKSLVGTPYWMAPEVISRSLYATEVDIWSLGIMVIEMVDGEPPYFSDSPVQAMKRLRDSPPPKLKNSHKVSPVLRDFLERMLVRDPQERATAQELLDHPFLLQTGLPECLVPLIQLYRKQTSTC
T4 sequence (P34947 whole entry): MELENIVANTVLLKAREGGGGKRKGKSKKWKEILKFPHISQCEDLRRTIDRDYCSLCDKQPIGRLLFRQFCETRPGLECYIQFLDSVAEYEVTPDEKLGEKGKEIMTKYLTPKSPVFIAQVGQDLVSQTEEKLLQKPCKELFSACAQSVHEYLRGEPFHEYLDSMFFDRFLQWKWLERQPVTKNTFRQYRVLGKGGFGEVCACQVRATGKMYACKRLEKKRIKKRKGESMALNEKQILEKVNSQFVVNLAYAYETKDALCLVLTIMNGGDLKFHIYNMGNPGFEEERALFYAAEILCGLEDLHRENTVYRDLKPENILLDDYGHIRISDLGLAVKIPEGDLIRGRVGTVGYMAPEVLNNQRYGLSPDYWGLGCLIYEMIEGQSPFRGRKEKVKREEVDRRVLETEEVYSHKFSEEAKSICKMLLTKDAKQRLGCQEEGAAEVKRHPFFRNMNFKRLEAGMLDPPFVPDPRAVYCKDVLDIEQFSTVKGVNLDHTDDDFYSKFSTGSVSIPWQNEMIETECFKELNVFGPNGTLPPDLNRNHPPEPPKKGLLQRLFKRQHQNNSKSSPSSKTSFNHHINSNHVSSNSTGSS

`C=CC(=O)Nc1cccc(Nc2nc(Nc3ccc(OCCOC)c(F)c3)ncc2F)c1` [Compound 2] was tested, and the inhibition at 3 µM (PAK6) was 18%, the remaining activity at 3 µM (PAK6; [1]) was 79.3% and the remaining activity at 3 µM (PAK6; [2]) was 84.8%. It also gave an inhibition at 3 µM (ZAK/MLTK) of 15.7%, a remaining activity at 3 µM (ZAK/MLTK; [1]) of 83.7% and a remaining activity at 3 µM (ZAK/MLTK; [2]) of 85%. It also gave an inhibition at 3 µM (TIE2/TEK) of -5.21%, a remaining activity at 3 µM (TIE2/TEK; [1]) of 103% and a remaining activity at 3 µM (TIE2/TEK; [2]) of 108%. For the same molecule, the inhibition at 3 µM (GRK5) was -2.59%, the remaining activity at 3 µM (GRK5; [1]) was 103% and the remaining activity at 3 µM (GRK5; [2]) was 102%. For the same molecule, the inhibition at 3 µM (Haspin) was 9.77%, the remaining activity at 3 µM (Haspin; [1]) was 90.6% and the remaining activity at 3 µM (Haspin; [2]) was 89.9%. For the same molecule, the inhibition at 3 µM (DMPK2) was 1.54%, the remaining activity at 3 µM (DMPK2; [1]) was 97.4% and the remaining activity at 3 µM (DMPK2; [2]) was 99.6%. It also gave an inhibition at 3 µM (TAOK3/JIK) of 7.74%, a remaining activity at 3 µM (TAOK3/JIK; [1]) of 94.5% and a remaining activity at 3 µM (TAOK3/JIK; [2]) of 90%.
